Results published in the NIST ThermoML archive (doi:10.1016/j.tca.2017.09.002).

Test: excess molar enthalpy (molar enthalpy of mixing); xn = mol fraction of the nth substance listed
Settings: 1273 K, 105 kPa, Liquid, Calvet calorimetry

[Ni] [nickel] + [Bi]
Settings | excess molar enthalpy [kcal/mol]
x1 = 0.0552 | -0.0846
x1 = 0.1056 | -0.165
x1 = 0.1516 | -0.227
x1 = 0.1935 | -0.272
x1 = 0.2321 | -0.301
x1 = 0.2677 | -0.321
x1 = 0.3011 | -0.329
x1 = 0.3319 | -0.325
